Measurements: the NIST ThermoML archive (doi:10.1016/j.tca.2007.05.009)
Several values for one entry are separate records, joined by “and”; a condition that tells them apart may be missing. Identical values can stand only once.

Conditions: Crystal

CC/N=C(/N)S [ethylthiourea]
Conditions | vapor or sublimation pressure
356.5 K, Calculated from knudsen effusion weight loss | 0.000282 kPa
357 K, Calculated from knudsen effusion weight loss | 0.000309 kPa
360 K, Torsion effusion method | 0.000331 kPa
360.5 K, Calculated from knudsen effusion weight loss | 0.000417 kPa
361 K, Torsion effusion method | 0.000437 kPa
362 K, Calculated from knudsen effusion weight loss | 0.00049 kPa
363 K, Torsion effusion method | 0.000447 kPa
364 K, Torsion effusion method | 0.00055 kPa
365 K, Torsion effusion method | 0.000661 kPa
366 K, Torsion effusion method | 0.000631 kPa
366.5 K, Torsion effusion method | 0.000813 kPa
367 K, Torsion effusion method | 0.000741 kPa
367.5 K, Calculated from knudsen effusion weight loss | 0.000912 kPa
368 K, Torsion effusion method | 0.000912 kPa and 0.000646 kPa
368.5 K, Torsion effusion method | 0.000794 kPa
369 K, Torsion effusion method | 0.000891 kPa
369.5 K, Torsion effusion method | 0.001175 kPa
370 K, Torsion effusion method | 0.001047 kPa and 0.000871 kPa
370.5 K, Torsion effusion method | 0.001175 kPa
371 K, Torsion effusion method | 0.001047 kPa and 0.001288 kPa and 0.001096 kPa
372 K, Torsion effusion method | 0.000977 kPa
373 K, Torsion effusion method | 0.001288 kPa
374 K, Torsion effusion method | 0.00138 kPa and 0.001738 kPa
374.5 K, Torsion effusion method | 0.001349 kPa
375 K, Torsion effusion method | 0.001862 kPa [middle of 4 runs]
376 K, Torsion effusion method | 0.001778 kPa [middle of 4 runs]
377 K, Torsion effusion method | 0.001905 kPa and 0.001698 kPa
378 K, Torsion effusion method | 0.002239 kPa [middle of 4 runs]
379 K, Torsion effusion method | 0.002692 kPa and 0.002884 kPa
379.5 K, Torsion effusion method | 0.00263 kPa
380 K, Torsion effusion method | 0.002951 kPa and 0.002188 kPa
380.5 K, Torsion effusion method | 0.002291 kPa
